Measurements: article PMC9841523 (Journal of Medicinal Chemistry, 2022)
Read-outs that look alike come from different tables or passages of the source.

How the values were obtained:
PI3K-ALPHA = target: T1, PI3K-ALPHA (Homo sapiens, UniProt P42336); test: Nanosyn Lipid Kinase screen; format: biochemical
T1 construct: purchased BPS lot #110809
Protocol: (§1) complex formation) controls.
(§2) Nanosyn Lipid Kinase screen. Biochemical inhibition of lipid and related protein kinases was determined by Nanosyn (Santa Clara, CA). […]
(§3) was determined by detection of fluorescent substrates using a microfluidic electrophoresis mobility shift assay with a LabChip3000 instrument (Caliper/PerkinElmer). Bodipy labeled phosphatidylinositol 4,5 phosphate (FL-PIP2) (Echelon Biosciences, Salt Lake City, Utah) with 1,2-dioctanoyl-sn-glycero-3-phospho-L-serine (PS) (Avanti Polar Lipids (Alabaster, AL) was […]
(§4) of DNA-PK (Promega, Cat#V4106) on a peptide/dsDNA complex was assayed by detection of ADP formation using ADP-Glo (Promega). Kinase reactions were assembled in 384 well plates in a total volume of 20 µL as follows. For PI3K isoforms, the kinase protein was pre-diluted to 2x concentration in the assay buffer (50 mM HEPES, pH 7.5, 1 mM DTT, 5 mM MgCl 2, 0.01% […]
(§5) well plate (10 µL per well). Compounds were serially pre-diluted in DMSO and added to the protein samples by acoustic dispensing (200 nL, Labcyte Echo). Concentration of DMSO was equalized to 1% in all samples. All test compounds were tested at 12 concentrations, 3x dilution intervals. The control samples (0%-inhibition in the absence of inhibitor, DMSO only) and 100%-inhibition (in the absence of enzyme) were assembled in replicates of four and were used to calculate %-inhibition in the presence of compounds. After 30 min of pre-incubation with compounds, the reactions were initiated by addition of 10 µL of FL-PIP2/PS substrate (10 µM […]
(§6) (PI3Kα,β), 0.5 nM (PI3Kδ) and 10 nM (PI3Kγ). Final concentration of ATP was 100 µM.
(§7) Following incubation, the reactions were quenched by addition of 50 µL of termination buffer (100 mM HEPES, pH 7.5,

PI3K-BETA = target: T2, PI3K-BETA (Homo sapiens, UniProt P42338); test: Nanosyn Lipid Kinase screen; format: biochemical
T2 construct: purchased Carna lot # 12CBS-0359H
Protocol: as §1, §2, §3, §4, §5, §6, §7

PI3K-DELTA = target: T3, PI3K-DELTA (Homo sapiens, UniProt O00329); test: Nanosyn Lipid Kinase screen; format: biochemical
T3 construct: purchased Carna lot#09CBS-1198D
Protocol: as §1, §2, §3, §4, §5, §6, §7

PI3K-GAMMA = target: T4, PI3K-GAMMA (Homo sapiens, UniProt P48736); test: Nanosyn Lipid Kinase screen; format: biochemical
T4 construct: purchased Thermo Fisher lot#1716438D
Protocol: as §1, §2, §3, §4, §5, §6, §7

mTORC1 = target: T5, mTORC1 (Homo sapiens, UniProt P42345+P62942); test: Nanosyn Lipid Kinase screen; format: biochemical
T5 construct: purchased BPS lot # 150818-A
Protocol: as §1, §2, §3, §4, §5, §6, §7

AMPKa1, AMPKa2 = test: KiNativ kinase panel; format: cell-based, human; details: 1 μM, MCF-7 Cells
CDK2 = target: T6, CDK2 (Homo sapiens, UniProt P24941); test: KiNativ kinase panel; format: cell-based; details: 1 μM, MCF-7 Cells
T6 construct: purchased ActivX Biosciences (KiNativ)

IKKe, TBK1 = test: KiNativ kinase panel; format: cell-based, human; details: 1 μM; MCF-7 Cells; Lys2; DIKPGNIMR
JAK1_Domain2 domain2 = target: T7, JAK1_Domain2 domain2 (Homo sapiens, UniProt P23458); test: KiNativ kinase panel; format: cell-based; details: 1 μM, MCF-7 Cells
T7 construct: endogenous in cells; host or cells: MCF7

KSR1, KSR2 = test: KiNativ kinase panel; format: cell-based, human; details: 1 μM, MCF-7 Cells, Activation Loop
MARK3, MARK4 = test: KiNativ kinase panel; format: cell-based, human; details: 1 μM; MCF-7 Cells; Lys1; EVAIKIIDK
MARK4 = target: T8, MARK4 (Homo sapiens, UniProt Q96L34); test: KiNativ kinase panel; format: cell-based; details: 1 μM, MCF-7 Cells
T8 construct: purchased ActivX Biosciences (KiNativ)
T8 sequence (Q96L34 1-752): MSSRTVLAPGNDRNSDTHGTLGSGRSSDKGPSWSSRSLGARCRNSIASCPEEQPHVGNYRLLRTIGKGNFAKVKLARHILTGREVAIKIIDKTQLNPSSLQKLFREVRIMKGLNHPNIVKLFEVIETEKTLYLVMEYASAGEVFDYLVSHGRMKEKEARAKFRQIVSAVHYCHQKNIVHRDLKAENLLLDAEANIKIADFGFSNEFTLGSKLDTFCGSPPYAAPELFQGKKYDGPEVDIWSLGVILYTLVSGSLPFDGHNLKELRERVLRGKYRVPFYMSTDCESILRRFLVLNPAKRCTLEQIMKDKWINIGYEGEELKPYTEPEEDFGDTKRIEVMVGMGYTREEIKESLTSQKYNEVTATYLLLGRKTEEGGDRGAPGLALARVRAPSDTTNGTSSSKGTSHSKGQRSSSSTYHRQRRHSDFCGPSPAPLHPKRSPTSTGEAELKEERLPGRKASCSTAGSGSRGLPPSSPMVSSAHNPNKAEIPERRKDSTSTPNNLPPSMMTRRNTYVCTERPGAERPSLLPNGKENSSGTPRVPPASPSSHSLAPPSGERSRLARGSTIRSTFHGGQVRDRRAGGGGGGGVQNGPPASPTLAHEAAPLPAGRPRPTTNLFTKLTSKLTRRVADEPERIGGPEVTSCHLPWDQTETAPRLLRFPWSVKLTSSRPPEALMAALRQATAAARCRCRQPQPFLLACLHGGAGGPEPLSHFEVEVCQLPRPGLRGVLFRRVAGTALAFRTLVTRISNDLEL

MST1 = target: T9, MST1 (Homo sapiens, UniProt Q13043); test: KiNativ kinase panel; format: cell-based; details: 1 μM; MCF-7 Cells; Lys1; ETGQIVAIKQVPVESDLQEIIK
T9 construct: purchased ActivX Biosciences (KiNativ)

TAO1, TAO3 = test: KiNativ kinase panel; format: cell-based, human; details: 1 μM, MCF-7 Cells, Lys2
TYK2_Domain2 domain2 = target: T10, TYK2_Domain2 domain2 (Homo sapiens, UniProt P29597); test: KiNativ kinase panel; format: cell-based; details: 1 μM; MCF-7 Cells; Activation Loop; IGDFGLAKAVPEGHEYYR
T10 construct: Briefly, MCF7 cells were exposed to; endogenous in cells; host or cells: MCF7

[1] = test system: ZC1/HGK, ZC2/TNIK, ZC3/MINK; test: KiNativ kinase panel; format: cell-based, human; details: 1 μM, MCF-7 Cells, Lys2
[2] = Activation Loop, IGDFGLTKAIETDKEYYTVK
[3] = Lys1, YDPEGDNTGEQVAVKSLKPESGGNHIADLKK

T7 sequence (P23458 whole entry, the tested form may be a part): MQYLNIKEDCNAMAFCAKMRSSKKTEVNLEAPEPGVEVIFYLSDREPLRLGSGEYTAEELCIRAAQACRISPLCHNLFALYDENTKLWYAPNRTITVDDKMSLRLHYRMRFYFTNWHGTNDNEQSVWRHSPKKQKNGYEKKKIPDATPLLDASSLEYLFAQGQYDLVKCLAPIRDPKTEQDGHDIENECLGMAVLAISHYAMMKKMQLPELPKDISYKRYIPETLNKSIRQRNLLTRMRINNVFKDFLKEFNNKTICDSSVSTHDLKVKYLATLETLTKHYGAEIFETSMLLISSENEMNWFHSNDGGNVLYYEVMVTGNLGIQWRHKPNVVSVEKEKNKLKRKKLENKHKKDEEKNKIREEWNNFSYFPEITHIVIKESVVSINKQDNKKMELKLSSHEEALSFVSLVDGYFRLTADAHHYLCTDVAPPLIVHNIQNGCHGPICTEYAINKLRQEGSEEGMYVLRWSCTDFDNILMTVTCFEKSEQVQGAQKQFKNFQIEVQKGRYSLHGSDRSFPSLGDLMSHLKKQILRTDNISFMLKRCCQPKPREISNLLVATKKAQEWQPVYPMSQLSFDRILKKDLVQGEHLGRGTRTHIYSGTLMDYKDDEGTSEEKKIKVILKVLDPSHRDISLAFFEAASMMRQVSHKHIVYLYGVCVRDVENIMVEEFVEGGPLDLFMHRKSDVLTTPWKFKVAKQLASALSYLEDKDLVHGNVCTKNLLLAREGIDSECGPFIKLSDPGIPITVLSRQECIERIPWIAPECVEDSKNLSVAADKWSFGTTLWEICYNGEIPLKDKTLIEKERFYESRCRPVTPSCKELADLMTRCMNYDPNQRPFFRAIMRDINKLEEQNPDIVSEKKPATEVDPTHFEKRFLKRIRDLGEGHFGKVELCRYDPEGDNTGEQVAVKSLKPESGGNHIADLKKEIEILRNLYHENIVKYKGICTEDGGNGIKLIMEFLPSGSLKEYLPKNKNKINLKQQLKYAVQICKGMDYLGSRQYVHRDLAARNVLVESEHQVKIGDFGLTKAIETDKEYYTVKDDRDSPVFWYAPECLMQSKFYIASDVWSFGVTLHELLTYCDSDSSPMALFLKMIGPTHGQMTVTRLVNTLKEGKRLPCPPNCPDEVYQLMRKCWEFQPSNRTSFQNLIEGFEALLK
T9 sequence (Q13043 whole entry): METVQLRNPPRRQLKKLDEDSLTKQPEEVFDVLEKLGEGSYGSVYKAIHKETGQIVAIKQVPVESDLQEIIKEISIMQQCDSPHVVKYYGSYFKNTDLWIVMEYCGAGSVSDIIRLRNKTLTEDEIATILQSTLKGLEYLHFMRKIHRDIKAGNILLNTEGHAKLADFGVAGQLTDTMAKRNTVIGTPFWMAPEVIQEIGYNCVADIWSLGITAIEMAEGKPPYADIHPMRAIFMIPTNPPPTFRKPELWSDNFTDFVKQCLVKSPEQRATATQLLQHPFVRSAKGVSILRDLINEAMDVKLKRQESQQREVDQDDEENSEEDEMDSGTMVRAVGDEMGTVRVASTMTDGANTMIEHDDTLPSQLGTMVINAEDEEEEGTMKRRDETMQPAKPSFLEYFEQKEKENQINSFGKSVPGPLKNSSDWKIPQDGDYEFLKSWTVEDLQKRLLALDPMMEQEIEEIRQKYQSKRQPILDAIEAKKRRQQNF
T1 sequence (P42336 whole entry, species assumed): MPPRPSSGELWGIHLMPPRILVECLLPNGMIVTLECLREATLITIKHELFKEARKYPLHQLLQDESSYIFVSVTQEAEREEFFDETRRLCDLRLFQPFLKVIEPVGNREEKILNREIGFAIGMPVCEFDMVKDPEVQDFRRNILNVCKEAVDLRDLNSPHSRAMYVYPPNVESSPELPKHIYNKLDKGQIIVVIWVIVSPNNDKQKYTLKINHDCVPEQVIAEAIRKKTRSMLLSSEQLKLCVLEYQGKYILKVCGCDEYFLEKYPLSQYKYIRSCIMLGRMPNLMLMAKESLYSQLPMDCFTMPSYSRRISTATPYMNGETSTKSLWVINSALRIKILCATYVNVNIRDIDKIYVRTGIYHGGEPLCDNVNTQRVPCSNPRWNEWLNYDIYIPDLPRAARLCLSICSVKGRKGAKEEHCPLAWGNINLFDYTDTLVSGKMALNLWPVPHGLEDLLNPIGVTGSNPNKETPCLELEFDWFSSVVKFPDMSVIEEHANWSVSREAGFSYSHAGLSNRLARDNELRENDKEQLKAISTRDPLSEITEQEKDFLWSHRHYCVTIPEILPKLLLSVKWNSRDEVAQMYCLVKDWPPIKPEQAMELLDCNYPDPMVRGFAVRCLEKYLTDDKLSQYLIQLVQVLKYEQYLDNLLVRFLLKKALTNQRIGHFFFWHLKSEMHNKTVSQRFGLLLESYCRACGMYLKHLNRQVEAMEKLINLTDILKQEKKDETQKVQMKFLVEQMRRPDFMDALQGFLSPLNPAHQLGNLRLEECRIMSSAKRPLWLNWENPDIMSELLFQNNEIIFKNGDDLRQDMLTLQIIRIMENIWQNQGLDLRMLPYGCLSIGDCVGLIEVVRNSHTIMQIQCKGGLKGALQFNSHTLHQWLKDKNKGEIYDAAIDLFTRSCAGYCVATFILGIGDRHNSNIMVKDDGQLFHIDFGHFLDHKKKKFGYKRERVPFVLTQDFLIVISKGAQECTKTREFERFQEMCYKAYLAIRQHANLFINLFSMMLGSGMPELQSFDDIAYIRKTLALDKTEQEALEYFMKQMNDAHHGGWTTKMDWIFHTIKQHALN
T1 sequence (P27986 whole entry partner, species assumed): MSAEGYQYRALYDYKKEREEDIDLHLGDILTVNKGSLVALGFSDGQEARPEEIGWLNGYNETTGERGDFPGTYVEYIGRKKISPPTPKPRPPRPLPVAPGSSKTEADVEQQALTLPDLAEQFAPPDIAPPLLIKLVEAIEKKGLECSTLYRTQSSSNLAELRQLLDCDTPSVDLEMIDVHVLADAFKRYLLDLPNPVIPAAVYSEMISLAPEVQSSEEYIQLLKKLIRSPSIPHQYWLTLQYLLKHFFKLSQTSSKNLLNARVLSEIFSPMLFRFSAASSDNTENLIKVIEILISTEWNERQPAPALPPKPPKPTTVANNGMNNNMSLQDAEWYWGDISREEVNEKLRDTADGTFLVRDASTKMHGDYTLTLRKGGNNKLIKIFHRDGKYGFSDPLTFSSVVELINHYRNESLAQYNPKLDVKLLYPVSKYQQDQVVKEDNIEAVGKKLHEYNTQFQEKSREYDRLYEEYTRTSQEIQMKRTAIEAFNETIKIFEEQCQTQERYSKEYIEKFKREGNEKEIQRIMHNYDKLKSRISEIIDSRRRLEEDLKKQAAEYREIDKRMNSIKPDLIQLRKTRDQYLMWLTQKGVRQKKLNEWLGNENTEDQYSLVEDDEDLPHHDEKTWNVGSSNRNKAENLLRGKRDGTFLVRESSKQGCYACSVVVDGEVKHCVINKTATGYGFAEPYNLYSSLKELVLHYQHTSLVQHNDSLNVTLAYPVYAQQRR
T1 sequence (P62942 whole entry partner, species assumed): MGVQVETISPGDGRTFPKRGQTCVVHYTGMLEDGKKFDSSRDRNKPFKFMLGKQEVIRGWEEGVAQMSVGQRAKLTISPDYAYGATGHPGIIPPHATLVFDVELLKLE
T10 sequence (P29597 whole entry, the tested form may be a part): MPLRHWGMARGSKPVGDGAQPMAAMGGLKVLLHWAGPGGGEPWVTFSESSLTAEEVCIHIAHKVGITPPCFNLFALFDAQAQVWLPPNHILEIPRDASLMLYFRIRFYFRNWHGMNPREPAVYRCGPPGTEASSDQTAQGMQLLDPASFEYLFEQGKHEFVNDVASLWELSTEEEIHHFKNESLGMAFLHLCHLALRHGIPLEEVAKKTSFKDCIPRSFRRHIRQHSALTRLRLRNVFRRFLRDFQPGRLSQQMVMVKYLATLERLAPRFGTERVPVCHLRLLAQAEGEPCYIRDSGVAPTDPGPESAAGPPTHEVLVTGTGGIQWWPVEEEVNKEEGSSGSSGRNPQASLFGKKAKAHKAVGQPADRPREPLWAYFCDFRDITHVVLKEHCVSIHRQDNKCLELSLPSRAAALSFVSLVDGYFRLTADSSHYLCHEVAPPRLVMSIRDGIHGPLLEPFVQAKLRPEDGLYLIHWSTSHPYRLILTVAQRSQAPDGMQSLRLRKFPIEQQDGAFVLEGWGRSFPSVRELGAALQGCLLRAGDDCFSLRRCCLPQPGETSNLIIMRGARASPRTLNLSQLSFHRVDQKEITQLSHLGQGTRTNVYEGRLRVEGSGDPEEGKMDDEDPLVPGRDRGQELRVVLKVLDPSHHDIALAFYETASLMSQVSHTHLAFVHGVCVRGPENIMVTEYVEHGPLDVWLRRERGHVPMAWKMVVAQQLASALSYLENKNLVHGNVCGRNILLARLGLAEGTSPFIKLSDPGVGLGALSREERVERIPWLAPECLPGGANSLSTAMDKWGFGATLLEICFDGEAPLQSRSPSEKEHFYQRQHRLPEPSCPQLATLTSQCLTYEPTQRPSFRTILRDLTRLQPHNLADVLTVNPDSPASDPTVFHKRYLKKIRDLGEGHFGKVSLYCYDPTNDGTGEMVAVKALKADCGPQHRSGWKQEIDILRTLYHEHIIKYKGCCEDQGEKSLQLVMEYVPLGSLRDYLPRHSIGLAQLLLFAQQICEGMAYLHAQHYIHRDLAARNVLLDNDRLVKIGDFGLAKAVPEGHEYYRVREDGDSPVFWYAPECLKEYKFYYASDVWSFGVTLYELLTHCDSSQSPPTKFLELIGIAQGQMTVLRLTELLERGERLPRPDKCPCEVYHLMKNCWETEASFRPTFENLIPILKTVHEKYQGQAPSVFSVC

Row | SMILES | KiNativ Kinase Panel Data (AMPKa1, AMPKa2; Lys1, VAVKILNR) | KiNativ Kinase Panel Data (CDK2; Lys1, LTGEVVALKK) | KiNativ Kinase Panel Data (CDK2; Lys2, DLKPQNLLINTEGAIK) | KiNativ Kinase Panel Data (IKKe, TBK1) | KiNativ Kinase Panel Data (JAK1_Domain2 domain2; [2]) | KiNativ Kinase Panel Data (JAK1_Domain2 domain2; [3]) | KiNativ Kinase Panel Data (MARK3, MARK4) | KiNativ Kinase Panel Data (MARK4; Lys2, DLKAENLLLDAEANIK) | KiNativ Kinase Panel Data (MST1) | KiNativ Kinase Panel Data (TYK2_Domain2 domain2) | other results
1 | CO[C@H]1C[C@@H]2CC[C@@H](C)[C@@](O)(O2)C(=O)C(=O)N2CCCC[C@H]2C(=O)O[C@H]([C@H](C)C[C@@H]2CC[C@@H](OC(=O)NCCOCCOCCOCCOCCOCCOCCOCCOCCC(=O)N3CCc4cc(Cn5nc(-c6ccc7oc(N)nc7c6)c6c(N)ncnc65)ccc4C3)[C@H](OC)C2)C[C@@H](O)[C@H](C)/C=C(\C)[C@@H](O)[C@@H](OC)C(=O)[C@H](C)C[C@H](C)/C=C/C=C/C=C/1C [compound 38] | 6.8 | 1.0 | 13.1 | -33.9 | 31.3 | 26.2 | 7.2 | 20.6 | 10.7 | 15.6 | IC50 (PI3K-ALPHA): 41.2 nM; IC50 (PI3K-BETA): > 1000 nM; IC50 (PI3K-DELTA): 95 nM; IC50 (PI3K-GAMMA): > 1000 nM; IC50 (mTORC1): 0.774 nM; KiNativ Kinase Panel Data (AMPKa1, AMPKa2; Lys2, […]): -6.5; KiNativ Kinase Panel Data (KSR1, KSR2; […]): -19.2; KiNativ Kinase Panel Data (MARK4; Lys1, […]): 7.0; KiNativ Kinase Panel Data (TAO1, TAO3; […]): -1.7; KiNativ Kinase Panel Data ([1]; […]): 8.5
2 | CO[C@H]1C[C@@H]2CC[C@@H](C)[C@@](O)(O2)C(=O)C(=O)N2CCCC[C@H]2C(=O)O[C@H]([C@H](C)C[C@@H]2CC[C@@H](OC(=O)NCCOCCOCCOCCOCCOCCOCCOCCOCCC(=O)NCCS(=O)(=O)c3ccc(C(=O)N4CCOc5ccc(-c6ccc(N)nc6)cc5C4)c(C)c3F)[C@H](OC)C2)C[C@@H](O)[C@H](C)/C=C(\C)[C@@H](O)[C@@H](OC)C(=O)[C@H](C)C[C@H](C)/C=C/C=C/C=C/1C [compound 40] | 2.1 | -29.1 | -40.9 | -21.1 | 19.5 | 13.3 | 13.2 | 22.2 | 18.2 | 1.9 | IC50 (PI3K-ALPHA; Nanosyn, with FKBP12, read-out: PI3K-ALPHA IC50): > 1000 nM; IC50 (PI3K-BETA; Nanosyn, with FKBP12): > 1000 nM; IC50 (PI3K-DELTA; Nanosyn, with FKBP12, read-out: PI3K-DELTA IC50): > 1000 nM; IC50 (PI3K-GAMMA; Nanosyn, with FKBP12, read-out: PI3K-GAMMA IC50): > 1000 nM; IC50 (mTORC1; read-out: mTORC1 IC50, Nanosyn, with FKBP12): 0.473 nM; KiNativ Kinase Panel Data (AMPKa1, AMPKa2; Lys2, DLKPENVLLDAHMNAK): -1.3; KiNativ Kinase Panel Data (KSR1, KSR2; SKNVFYDNGK): -20.7; KiNativ Kinase Panel Data (MARK4; Lys1, EVAIKIIDKTQLNPSSLQK): 24.2; KiNativ Kinase Panel Data (TAO1, TAO3; DIKAGNILLTEPGQVK): -29.7; KiNativ Kinase Panel Data ([1]; DIKGQNVLLTENAEVK): -13.4
